Measured values published in BindingDB's records for doi:10.1124/mol.60.1.124 (U410, 2001).
Where “and” joins values, the source holds several entries; their conditions need not be identical. Identical values can stand only once.

The compounds below were run against T1, Neuropeptide Y receptor type 2 (Rattus norvegicus, UniProt Q9ERC0).
T1 sequence (Q9ERC0 whole entry): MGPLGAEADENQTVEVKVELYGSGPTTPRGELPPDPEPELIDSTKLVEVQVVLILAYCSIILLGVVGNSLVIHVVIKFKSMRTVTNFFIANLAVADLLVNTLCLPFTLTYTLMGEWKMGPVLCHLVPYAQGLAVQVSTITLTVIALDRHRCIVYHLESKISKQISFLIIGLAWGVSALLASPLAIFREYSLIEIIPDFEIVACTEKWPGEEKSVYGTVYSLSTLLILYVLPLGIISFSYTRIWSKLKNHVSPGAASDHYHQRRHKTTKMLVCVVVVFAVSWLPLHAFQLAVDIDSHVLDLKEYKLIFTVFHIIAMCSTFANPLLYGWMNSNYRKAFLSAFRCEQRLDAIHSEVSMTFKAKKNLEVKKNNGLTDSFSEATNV

Ki	SMILES
6.5 nM	NC(N)=NCCCC(NC(=O)CC1(CC(=O)N2CCN(C3c4ccccc4NC(=O)c4ccccc43)CC2)CCCC1)C(=O)NCCn1c(=O)n(-c2ccccc2)n(-c2ccccc2)c1=O (stereo not drawn) [NSC_5311024]
1.66 nM and 0.54 nM	CC(=O)N[C@@H](C)C(=O)N[C@@H](CO)C(=O)N[C@@H](CC(C)C)C(=O)N[C@@H](CCCNC(=N)N)C(=O)N[C@@H](Cc1cnc[nH]1)C(=O)N[C@@H](Cc1ccc(O)cc1)C(=O)N[C@@H](CC(C)C)C(=O)N[C@@H](CC(N)=O)C(=O)N[C@@H](CC(C)C)C(=O)N[C@H](C(=O)N[C@H](C(=O)N[C@@H](CCCNC(=N)N)C(=O)N[C@@H](CCC(N)=O)C(=O)N[C@@H](CCCNC(=N)N)C(=O)N[C@@H](Cc1ccc(O)cc1)C(N)=O)[C@@H](C)O)C(C)C [PYY, N-alpha-Ac, 22-36]

SMILES	Ki
O=c1oc2ccccc2c(O)c1C1CC(c2ccc(-c3ccccc3)cc2)Cc2ccccc21 (stereo not drawn) [NSC_41735]	1000 nM
